From paper PMC6478789, “A chemical toolbox for the study of bromodomains and epigenetic signaling” (Nature Communications, 2019)

Columns and labels:
three TNBC lines = assay: Combinatorial screen of BRD inhibitors with or without BAY-876 (confluency); format: cell-based, human; details: 3 μM probe + 3 μM BAY-876
Procedure: Fig. 6 BRD inhibitors leverage metabolic adaptations induced by glucose transporter I (GLUT1) inhibition in TNBC. a BRD inhibitor screening across ten TNBC cell lines. Cells were treated with indicated BRD inhibitors at 3 μM for 7 days. Confluency was measured using an IncuCyte ZOOM live cell imaging device. Data shown are mean ± s.d. of n = 4 independent cell culture grown and treated cells. A two-sided Student’s t test was used to derive the p-values. b SLC2A1 gene expression in the The Cancer Genome Atlas (TCGA) breast datasets. The cohorts were divided into TNBCs (red) and non-TNBCs (blue) according to PAM50 classification. Gene expression is reported as median-centered expression log2 values. The number of patients (n) per group is indicated. P-values were determined using a Wilcoxon's rank-sum test. c Glucose uptake in MDA-MB-436 cells in response to BAY-876 treatment relative to vehicle. MDA-MB-436 cells were treated with dimethyl sulfoxide (DMSO) or 3 µM BAY-876 for 5 days. Graph indicates mean, error bars denote s.d. from three independent assays and p-value was computed using the Benjamini-Hochberg t test; ***p < 0.001. d Effects of BAY-876 treatment on the intracellular acetyl-CoA level. Graph indicates mean, error bars denote s.d. from three independent assays and p-value was computed using the Benjamini-Hochberg t test; ***p < 0.001. e Effects of BAY-876 treatment on intracellular NAD^+/NADH level. Graph indicates the mean, error bars denote s.d. from three independent assays and p-value computed using the Benjamini-Hochberg t test; **p < 0.01. f Immunoblot analysis of H3 and H4 acetylation in MDA-MB-436 cells before and after BAY-876 treatment. P-value computed using the Benjamini-Hochberg t test; ***p < 0.001. g Cell growth effects of BAY-876 treatment on three representative cell lines. n.s. not significant. h Combinatorial screening of BRD inhibitors with or without 3 μM BAY-876 across ten TNBC cell lines. Cell confluency was obtained from the endpoint Incucyte scanning. (Left) Heatmap of the combinatorial screening results; (Right) Cell confluency after treatment with three potential BRDi candidates at 3 μM in the presence or absence of 3 μM BAY-876 in three representative cell lines. Graph indicates mean, error bars denote s.d. from three independent assays and p-values were computed using the Benjamini-Hochberg t test; **p < 0.01; ***p < 0.001. Raw data images are available in Supplementary Fig. 4
TNBC cell lines were seeded in sterile, transparent 384-well plates at 500 cells per well in 50 µl media. Chemical probes were delivered in dimethyl sulfoxide (DMSO). Cell confluency at 7 days was evaluated using an Incucyte ZOOM live cell imaging device (Essen Bioscence) and analyzed with the Incucyte ZOOM (2016A) software based on phase contrast image.

MYST1 = target: T1, MYST1 (Homo sapiens, UniProt Q9H7Z6); assay: Histone acetyltransferase (HAT) activity assay; format: biochemical;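 also: selectivity screen across a panel of histone acetyltransferases, with compounds tested at 1 and 10 µM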
T1 sequence (Q9H7Z6 1-458): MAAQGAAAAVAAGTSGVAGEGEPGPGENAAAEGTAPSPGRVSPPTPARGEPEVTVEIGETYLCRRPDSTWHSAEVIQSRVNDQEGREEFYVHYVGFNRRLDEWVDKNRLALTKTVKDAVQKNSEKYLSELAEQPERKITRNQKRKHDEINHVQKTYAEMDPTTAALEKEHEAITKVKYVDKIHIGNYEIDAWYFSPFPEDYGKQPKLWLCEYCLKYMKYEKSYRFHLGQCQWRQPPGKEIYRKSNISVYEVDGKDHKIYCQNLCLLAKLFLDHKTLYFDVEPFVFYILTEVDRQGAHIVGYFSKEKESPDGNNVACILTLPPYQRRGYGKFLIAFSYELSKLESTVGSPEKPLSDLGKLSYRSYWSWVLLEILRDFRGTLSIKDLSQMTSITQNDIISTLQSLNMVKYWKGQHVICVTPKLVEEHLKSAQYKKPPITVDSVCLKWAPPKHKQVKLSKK

MYST3 = MYST3 (Homo sapiens, UniProt Q92794); assay: Histone acetyltransferase (HAT) activity assay; format: biochemical;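 also: selectivity screen of bromodomain probe compounds across a panel of histone acetyltransferases, read out as enzyme activity in %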
EP300 = EP300 (Homo sapiens, UniProt Q09472); assay: Histone acetyltransferase (HAT) activity assay; format: biochemical;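 also: selectivity screen of bromodomain probe compounds against histone acetyltransferases, with enzyme activity given in percent for compounds tested at 1 and 10 µM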
GCN5L2 = GCN5L2 (Homo sapiens, UniProt Q92830); assay: Histone acetyltransferase (HAT) activity assay; format: biochemical;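 also: selectivity screen of BRD probe compounds across a panel of histone acetyltransferases, HAT activity in % with compound at 1 or 10 µM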
HAT1 = target: T2, HAT1 (Homo sapiens, UniProt O14929); assay: Histone acetyltransferase (HAT) activity assay; format: biochemical;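 also: HAT selectivity screen of BRD probe compounds, enzyme activity in % measured with compound at 1 µM and 10 µM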
T2 sequence (O14929 1-419): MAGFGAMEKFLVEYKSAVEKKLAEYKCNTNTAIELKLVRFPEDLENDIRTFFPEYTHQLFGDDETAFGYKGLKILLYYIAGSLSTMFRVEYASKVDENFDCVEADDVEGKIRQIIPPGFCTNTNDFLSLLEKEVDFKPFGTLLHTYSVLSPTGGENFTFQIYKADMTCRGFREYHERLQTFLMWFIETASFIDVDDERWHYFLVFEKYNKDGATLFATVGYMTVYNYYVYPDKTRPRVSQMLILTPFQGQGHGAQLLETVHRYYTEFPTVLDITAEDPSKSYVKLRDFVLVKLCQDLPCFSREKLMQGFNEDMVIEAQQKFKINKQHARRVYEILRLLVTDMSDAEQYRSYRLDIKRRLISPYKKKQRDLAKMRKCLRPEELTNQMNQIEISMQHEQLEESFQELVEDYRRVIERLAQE

Sequence of EP300 (Q09472 whole entry, species assumed): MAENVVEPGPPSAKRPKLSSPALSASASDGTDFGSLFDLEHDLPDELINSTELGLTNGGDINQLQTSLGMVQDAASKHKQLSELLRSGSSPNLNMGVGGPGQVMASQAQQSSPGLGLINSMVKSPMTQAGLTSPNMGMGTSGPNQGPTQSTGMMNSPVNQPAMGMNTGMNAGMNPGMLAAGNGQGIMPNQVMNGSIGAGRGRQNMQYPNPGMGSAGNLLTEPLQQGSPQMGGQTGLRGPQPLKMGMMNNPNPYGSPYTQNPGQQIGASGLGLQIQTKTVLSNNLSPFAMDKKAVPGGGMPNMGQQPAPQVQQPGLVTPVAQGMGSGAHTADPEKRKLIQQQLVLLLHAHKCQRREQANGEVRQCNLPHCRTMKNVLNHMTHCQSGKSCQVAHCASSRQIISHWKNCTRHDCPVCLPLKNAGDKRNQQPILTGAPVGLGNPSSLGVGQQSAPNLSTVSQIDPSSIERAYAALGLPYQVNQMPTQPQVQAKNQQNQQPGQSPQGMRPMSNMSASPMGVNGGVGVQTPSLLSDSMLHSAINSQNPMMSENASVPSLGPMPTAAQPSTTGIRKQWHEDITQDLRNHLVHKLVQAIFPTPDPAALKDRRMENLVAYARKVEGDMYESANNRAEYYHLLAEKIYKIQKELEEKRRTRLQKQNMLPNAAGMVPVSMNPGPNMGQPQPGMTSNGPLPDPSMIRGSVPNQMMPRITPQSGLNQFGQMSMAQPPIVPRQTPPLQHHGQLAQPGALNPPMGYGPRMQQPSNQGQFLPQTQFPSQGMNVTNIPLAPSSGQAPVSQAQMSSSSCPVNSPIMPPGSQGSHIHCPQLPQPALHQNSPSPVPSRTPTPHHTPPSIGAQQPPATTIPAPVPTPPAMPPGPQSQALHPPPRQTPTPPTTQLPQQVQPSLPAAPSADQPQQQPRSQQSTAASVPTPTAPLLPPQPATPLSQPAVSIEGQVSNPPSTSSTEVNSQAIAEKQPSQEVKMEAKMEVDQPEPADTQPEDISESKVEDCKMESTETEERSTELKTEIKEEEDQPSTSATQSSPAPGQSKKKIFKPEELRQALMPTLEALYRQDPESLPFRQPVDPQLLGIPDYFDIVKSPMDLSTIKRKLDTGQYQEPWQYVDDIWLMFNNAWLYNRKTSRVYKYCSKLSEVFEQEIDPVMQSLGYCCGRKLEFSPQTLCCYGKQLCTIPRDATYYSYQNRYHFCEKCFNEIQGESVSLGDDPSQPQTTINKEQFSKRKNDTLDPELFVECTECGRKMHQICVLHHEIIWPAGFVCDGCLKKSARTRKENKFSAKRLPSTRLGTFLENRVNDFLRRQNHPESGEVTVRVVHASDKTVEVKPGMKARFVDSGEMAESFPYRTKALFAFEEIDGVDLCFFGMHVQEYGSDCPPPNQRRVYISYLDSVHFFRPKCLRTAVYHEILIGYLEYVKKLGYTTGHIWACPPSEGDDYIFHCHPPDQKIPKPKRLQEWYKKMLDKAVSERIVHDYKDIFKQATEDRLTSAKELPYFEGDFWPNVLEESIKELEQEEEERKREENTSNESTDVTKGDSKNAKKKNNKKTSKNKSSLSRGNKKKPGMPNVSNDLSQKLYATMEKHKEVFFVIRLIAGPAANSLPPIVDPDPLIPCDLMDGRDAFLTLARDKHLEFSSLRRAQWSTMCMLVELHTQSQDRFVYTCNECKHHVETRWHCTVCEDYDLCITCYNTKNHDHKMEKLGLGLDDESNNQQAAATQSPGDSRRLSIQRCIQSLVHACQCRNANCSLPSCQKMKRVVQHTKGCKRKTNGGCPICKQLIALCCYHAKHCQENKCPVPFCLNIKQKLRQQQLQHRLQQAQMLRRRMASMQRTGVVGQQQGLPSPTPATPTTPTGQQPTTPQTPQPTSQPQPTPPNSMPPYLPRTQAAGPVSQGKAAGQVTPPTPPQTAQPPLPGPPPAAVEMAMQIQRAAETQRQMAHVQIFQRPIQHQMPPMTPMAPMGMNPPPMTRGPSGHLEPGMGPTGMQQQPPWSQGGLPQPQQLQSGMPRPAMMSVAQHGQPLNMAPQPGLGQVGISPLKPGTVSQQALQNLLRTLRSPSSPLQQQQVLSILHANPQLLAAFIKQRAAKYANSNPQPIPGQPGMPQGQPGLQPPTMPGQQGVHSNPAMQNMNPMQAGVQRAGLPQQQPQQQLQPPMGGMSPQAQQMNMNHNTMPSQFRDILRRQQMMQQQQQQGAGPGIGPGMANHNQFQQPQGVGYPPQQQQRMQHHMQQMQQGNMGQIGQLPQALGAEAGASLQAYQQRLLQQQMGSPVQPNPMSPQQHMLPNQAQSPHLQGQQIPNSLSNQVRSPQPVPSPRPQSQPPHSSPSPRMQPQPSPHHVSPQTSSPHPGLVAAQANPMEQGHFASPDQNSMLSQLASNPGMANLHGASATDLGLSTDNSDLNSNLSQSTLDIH
Sequence of MYST3 (Q92794 whole entry, species assumed): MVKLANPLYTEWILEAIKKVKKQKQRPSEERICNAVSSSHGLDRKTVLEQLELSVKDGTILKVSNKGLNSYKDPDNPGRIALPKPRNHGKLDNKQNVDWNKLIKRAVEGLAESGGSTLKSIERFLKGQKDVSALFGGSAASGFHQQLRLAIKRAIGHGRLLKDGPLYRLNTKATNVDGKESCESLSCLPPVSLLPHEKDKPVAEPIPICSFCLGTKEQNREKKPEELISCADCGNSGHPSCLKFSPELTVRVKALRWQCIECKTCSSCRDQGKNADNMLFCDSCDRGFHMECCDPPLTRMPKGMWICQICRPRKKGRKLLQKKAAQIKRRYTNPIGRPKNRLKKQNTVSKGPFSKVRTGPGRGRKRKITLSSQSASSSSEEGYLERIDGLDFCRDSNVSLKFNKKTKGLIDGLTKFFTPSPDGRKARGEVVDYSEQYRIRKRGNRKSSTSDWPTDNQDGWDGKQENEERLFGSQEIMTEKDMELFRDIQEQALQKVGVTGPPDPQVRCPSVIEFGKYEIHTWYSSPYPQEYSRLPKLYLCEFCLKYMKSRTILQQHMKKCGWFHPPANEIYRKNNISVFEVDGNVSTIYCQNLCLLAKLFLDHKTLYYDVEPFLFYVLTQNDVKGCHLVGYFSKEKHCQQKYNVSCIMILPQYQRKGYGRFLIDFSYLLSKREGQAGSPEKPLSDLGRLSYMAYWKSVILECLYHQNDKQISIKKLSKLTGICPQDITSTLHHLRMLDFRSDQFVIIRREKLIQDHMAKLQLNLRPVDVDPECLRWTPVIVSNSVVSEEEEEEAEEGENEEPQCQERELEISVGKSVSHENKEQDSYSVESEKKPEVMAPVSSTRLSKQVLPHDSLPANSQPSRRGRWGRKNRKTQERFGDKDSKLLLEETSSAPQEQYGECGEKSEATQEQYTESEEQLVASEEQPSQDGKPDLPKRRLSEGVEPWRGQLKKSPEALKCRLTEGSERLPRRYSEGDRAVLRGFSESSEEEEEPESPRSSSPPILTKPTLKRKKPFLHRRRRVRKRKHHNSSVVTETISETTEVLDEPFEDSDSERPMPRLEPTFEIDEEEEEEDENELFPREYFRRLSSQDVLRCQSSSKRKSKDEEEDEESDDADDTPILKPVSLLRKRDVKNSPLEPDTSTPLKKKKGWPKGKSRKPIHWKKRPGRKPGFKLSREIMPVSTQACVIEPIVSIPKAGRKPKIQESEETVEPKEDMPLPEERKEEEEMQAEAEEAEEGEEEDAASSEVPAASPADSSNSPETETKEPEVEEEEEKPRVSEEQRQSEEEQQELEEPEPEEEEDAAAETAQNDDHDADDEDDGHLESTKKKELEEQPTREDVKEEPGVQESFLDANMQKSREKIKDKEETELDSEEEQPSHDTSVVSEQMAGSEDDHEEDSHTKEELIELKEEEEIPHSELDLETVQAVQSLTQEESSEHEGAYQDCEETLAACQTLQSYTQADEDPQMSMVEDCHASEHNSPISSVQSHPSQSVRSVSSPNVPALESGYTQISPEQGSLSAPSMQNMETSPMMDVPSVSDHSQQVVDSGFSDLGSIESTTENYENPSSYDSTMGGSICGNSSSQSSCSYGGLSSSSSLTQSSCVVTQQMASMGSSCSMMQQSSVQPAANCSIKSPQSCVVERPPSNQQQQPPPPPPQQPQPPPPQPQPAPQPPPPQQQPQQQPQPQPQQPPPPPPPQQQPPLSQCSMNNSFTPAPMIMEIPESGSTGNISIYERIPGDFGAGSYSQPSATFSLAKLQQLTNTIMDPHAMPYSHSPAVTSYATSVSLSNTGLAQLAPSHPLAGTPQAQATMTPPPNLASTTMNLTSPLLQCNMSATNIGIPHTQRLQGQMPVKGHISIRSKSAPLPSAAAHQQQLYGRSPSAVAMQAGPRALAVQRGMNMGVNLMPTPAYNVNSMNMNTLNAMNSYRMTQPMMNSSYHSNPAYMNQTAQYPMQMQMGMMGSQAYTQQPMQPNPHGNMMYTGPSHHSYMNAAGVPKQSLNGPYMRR

- HATs Activity (%) (MYST1; 1µM): 104%
- HATs Activity (%) (MYST1; 10µM): 104%
- HATs Activity (%) (MYST3; 1µM): 101%
- HATs Activity (%) (MYST3; 10µM): 99%
- HATs Activity (%) (EP300; 1µM): 96%
- HATs Activity (%) (EP300; 10µM): 99%
- HATs Activity (%) (GCN5L2; 1µM): 104%
- HATs Activity (%) (GCN5L2; 10µM): 102%
- HATs Activity (%) (HAT1; 1µM): 103%
- HATs Activity (%) (HAT1; 10µM): 101%
SMILES: CCn1cc(-c2cccc(C(F)(F)F)c2)c2sc(C(=N)NC3CCS(=O)(=O)CC3)cc2c1=O [I-BRD9]
- combination effect with BAY-876 across the three cell lines (three TNBC lines): efficacy in only one of the three tested TNBC lines
- viability in combination with BAY-876 (three TNBC lines): significant decrease in viability
